The test system of the experiment is multi-drug resistant Pneumococcus. As to the kind of experiment: Agar Dilution Test (NCCLS), MHK. The format is cell-based, Pneumococcus pneumoniae. Conditions: against multi-drug resistant Pneumococcus. An excerpt:
In particular, the active compounds of the invention show antimicrobial, e.g. antibacterial, activity against aerobic and anaerobic growing bacteria, e.g. gram negative and gram positive bacteria such as Enterobacter, e.g. Enterobacter cloacae; Enterococcus, e.g. Enterococcus faecalis, Enterococcus faecium; Moraxella, e.g. Moraxella catarrhalis; Haemophilus, e.g. Haemophilus influenza; Klebsiella, e.g. Klebsiella edwardsii, Klebsiella pneumoniae; Streptococcus, e.g. Streptococcus pyogenes; Staphylococcus, e.g. Staphylococcus aureus MSSA (methicillin sensitive strains); Staphylococcus aureus MRSA (methicillin resistant strains); Escherichia, e.g. Escherichia coli; Proteus, e.g. Proteus mirabilis, Salmonella, e.g. Salmonella typhimurium, Serratia, e.g. Serratia marcescens, Pseudomonas, e.g. Pseudomonas aeruginosa; Pneumococci, e.g. Pneumococcus pneumoniae (penicillin sensitive and mult-drug resistant strains); in vitro in the Agar DilutionTest for bacteria according to National Commitee for Clinical Laboratory Standards (NCCLS) 1993,
Document-M7-A3 Vol.13, No. 25: “Methods for dilution Antimicrobial Susceptibility Tests for Bacteria that Grow Aerobically-Third Edition, Approved Standard”; and
Document M11-A3 for anaerobic bacteria […]

Experimental findings from patent publication US6693095B2, “Antibacterial substituted 7-acylamino-3-(methylhydrazono) methyl-cephalosporins and intermediates” (priority 1997, dated 2004) are described below.

As for “7-(((5-amino-1,2,4-thiadiazol-3-yl)-(Z)-(fluoromethoxyimino)acetyl)amino)-3-(imino-1-piperazinyhmethyl)medtylhydrazono)methyl-3-cephem4-carboxylic acid [Example 1]”, the MHK was found to be 0.4 µg/mL.
